The values below are quoted from earlier work in patent US20220000160A1, “FLAVONOID DELIVERY SYSTEM” (priority 2019, published 2022).

In the case of `C[C@@H]1O[C@@H](OC[C@H]2O[C@@H](Oc3c(-c4ccc(O)c(O)c4)oc4cc(O)cc(O)c4c3=O)[C@H](O)[C@@H](O)[C@@H]2O)[C@H](O)[C@H](O)[C@H]1O` [Free rutin, quercetin-3-rhamnosylglucoside], the solubility in ethanol result is listed as “about 4 % w/v”.
